Active and inactive are the calls of the source. No cut-off for these calls is given here.
Legend:
[1] = biological target: T1, Serine/threonine-protein kinase Chk2 (Homo sapiens, UniProt O96017); assay: Inhibition of CHK2 (unknown origin) at 3 uM by Z-lyte assay relative to control
[2] = Clearance in rat at 2 mg/kg, iv; type: ADME, organism-based; conditions: in vivo
[3] = biological target: T1, Serine/threonine-protein kinase Chk2; assay: Inhibition of CHK2 (unknown origin) by Z-lyte assay
[4] = biological target: T2, Mitogen-activated protein kinase 8 (Homo sapiens, UniProt P45983); assay: Inhibition of JNK1 (unknown origin) by Z-lyte assay
T2 sequence (P45983 whole entry): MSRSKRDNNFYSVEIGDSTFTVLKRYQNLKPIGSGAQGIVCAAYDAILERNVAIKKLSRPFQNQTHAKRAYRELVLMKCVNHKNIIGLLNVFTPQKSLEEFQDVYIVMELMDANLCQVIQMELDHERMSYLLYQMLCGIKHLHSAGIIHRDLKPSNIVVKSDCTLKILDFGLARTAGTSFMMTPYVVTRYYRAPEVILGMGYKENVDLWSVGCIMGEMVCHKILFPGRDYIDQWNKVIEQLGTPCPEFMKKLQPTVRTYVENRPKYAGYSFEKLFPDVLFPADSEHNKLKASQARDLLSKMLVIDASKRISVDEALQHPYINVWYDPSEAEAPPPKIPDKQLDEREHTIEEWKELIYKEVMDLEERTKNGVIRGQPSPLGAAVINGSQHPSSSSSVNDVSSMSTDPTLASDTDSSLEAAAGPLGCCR

[5] = biological target: T3, Mitogen-activated protein kinase 9 (Homo sapiens, UniProt P45984); assay: Inhibition of JNK2 (unknown origin) by Z-lyte assay
Target sequence in this assay (P45984 whole entry): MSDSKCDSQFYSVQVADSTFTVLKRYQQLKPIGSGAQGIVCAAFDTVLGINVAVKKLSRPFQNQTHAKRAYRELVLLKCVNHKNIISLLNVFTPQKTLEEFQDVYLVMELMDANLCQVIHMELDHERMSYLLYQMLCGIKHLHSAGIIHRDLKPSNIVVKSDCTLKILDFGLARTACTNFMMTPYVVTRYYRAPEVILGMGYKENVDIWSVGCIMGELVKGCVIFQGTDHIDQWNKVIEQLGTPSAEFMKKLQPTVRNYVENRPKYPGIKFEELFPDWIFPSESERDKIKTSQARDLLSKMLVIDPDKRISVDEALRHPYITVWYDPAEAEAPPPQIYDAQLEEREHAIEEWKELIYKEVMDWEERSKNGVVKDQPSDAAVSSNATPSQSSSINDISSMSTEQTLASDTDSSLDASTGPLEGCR

[6] = biological target: T4, MAP kinase-activated protein kinase 3 (Homo sapiens, UniProt Q16644); assay: Inhibition of MAPKAPK3 (unknown origin) by Z-lyte assay
Target sequence in this assay (Q16644 whole entry): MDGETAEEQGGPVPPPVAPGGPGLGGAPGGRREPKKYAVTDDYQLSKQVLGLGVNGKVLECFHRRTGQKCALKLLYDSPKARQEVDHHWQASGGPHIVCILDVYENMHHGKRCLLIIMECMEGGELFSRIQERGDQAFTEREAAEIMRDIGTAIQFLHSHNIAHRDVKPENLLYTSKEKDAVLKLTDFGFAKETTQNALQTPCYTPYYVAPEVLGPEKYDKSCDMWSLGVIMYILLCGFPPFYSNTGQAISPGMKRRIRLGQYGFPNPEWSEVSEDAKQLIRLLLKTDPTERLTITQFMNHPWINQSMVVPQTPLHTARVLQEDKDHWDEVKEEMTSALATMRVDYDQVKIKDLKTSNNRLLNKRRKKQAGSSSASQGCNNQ

[7] = biological target: T5, Proto-oncogene tyrosine-protein kinase Src (Homo sapiens, UniProt P12931); assay: Inhibition of SRC N1 (unknown origin) by Z-lyte assay
T5 sequence (P12931 2-536 limits assumed): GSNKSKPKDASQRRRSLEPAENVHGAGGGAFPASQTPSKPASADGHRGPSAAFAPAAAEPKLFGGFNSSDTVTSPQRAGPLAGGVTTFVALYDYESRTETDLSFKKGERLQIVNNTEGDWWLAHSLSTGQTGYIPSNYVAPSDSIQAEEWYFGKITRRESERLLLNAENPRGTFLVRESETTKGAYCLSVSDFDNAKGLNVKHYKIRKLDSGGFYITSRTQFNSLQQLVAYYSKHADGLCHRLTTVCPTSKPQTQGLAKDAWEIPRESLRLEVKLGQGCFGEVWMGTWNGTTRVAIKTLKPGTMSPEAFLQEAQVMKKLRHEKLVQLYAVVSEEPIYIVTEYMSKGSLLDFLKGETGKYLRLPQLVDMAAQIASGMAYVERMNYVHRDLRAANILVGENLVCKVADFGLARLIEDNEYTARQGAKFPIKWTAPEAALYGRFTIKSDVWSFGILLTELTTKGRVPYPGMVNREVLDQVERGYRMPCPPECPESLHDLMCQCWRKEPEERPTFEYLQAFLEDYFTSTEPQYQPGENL

[8] = biological target: Testis-specific serine/threonine-protein kinase 1 (Homo sapiens, UniProt Q9BXA7); assay: Inhibition of TSSK1 (unknown origin) by Z-lyte assay
Chain of Testis-specific serine/threonine-protein kinase 1 (Q9BXA7 whole entry): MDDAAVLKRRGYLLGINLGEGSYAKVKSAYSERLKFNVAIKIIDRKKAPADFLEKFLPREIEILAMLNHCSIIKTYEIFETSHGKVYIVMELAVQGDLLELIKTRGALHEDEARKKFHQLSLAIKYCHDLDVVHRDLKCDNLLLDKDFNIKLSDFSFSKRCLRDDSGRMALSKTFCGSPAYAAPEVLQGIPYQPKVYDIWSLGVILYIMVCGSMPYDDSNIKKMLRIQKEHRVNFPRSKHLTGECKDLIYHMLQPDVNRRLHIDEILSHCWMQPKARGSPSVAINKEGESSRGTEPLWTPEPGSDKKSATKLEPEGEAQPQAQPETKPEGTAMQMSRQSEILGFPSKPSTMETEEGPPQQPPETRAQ

[9] = organism: Homo sapiens; assay: Selectivity index, ratio of IC50 for inhibition of CHK2 (unknown origin) to IC50 for inhibition of TTK (unknown origin)
[10] = organism: Homo sapiens; assay: Selectivity ratio of IC50 for inhibition of LRRK2 (unknown origin) to IC50 for inhibition of TTK (unknown origin)
[11] = organism: Homo sapiens; assay: Selectivity ratio of IC50 for inhibition of LRRK2 G2019S mutant (unknown origin) to IC50 for inhibition of TTK (unknown origin)
[12] = organism: Homo sapiens; assay: Selectivity ratio of IC50 for inhibition of JNK1 (unknown origin) to IC50 for inhibition of TTK (unknown origin)
[13] = organism: Homo sapiens; assay: Selectivity ratio of IC50 for inhibition of JNK2 (unknown origin) to IC50 for inhibition of TTK (unknown origin)
[14] = organism: Homo sapiens; assay: Selectivity ratio of IC50 for inhibition of MAPKAPK3 (unknown origin) to IC50 for inhibition of TTK (unknown origin)
[15] = organism: Homo sapiens; assay: Selectivity ratio of IC50 for inhibition of TSSK2 (unknown origin) to IC50 for inhibition of TTK (unknown origin)
[16] = organism: Homo sapiens; assay: Selectivity ratio of IC50 for inhibition of TSSK1 (unknown origin) to IC50 for inhibition of TTK (unknown origin)
[17] = biological target: T6, Dual specificity protein kinase TTK (Homo sapiens, UniProt P33981); assay: Inhibition of TTK autophosphorylation at T686 residue in human CAL-51 cells measured after 1 hr by Western blot analysis; type: cell-based
T6 sequence (P33981 whole entry): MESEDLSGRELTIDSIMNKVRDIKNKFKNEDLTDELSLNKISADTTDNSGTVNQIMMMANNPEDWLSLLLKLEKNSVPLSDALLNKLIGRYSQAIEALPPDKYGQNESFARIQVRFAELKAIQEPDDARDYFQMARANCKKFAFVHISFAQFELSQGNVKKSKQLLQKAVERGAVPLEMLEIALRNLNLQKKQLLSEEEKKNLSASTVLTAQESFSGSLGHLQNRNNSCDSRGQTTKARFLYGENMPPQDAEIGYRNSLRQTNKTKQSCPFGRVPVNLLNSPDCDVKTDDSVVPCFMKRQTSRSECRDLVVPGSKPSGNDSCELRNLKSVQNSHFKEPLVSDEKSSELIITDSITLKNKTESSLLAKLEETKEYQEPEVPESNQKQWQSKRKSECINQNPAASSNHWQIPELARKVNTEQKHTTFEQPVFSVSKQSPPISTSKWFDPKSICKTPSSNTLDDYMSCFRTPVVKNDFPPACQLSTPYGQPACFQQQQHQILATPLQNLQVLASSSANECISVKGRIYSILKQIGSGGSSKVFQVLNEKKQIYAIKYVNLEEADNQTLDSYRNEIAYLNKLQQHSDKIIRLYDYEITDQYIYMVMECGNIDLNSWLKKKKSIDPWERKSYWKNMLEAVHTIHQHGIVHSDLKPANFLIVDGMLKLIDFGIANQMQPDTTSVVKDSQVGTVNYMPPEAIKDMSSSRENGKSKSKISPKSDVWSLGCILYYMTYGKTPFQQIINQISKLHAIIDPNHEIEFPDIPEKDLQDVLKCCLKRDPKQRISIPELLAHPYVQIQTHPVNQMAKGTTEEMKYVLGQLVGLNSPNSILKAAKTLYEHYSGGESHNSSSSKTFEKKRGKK

[18] = Volume of distribution at steady state in rat at 2 mg/kg, iv; type: ADME, organism-based; conditions: in vivo, read-out: Vdss
[19] = Volume of distribution at steady state in mouse at 2 mg/kg, iv; type: ADME, organism-based; conditions: in vivo, read-out: Vdss
[20] = Mean residence time in rat at 2 mg/kg, iv; type: ADME, organism-based; conditions: in vivo
[21] = Mean residence time in mouse at 2 mg/kg, iv; type: ADME, organism-based; conditions: in vivo
[22] = AUC in rat at 2 mg/kg, iv; type: ADME, organism-based; design: dose 2 mg/kg; conditions: in vivo
[23] = AUC in mouse at 2 mg/kg, iv; type: ADME, organism-based; design: dose 2 mg/kg; conditions: in vivo
[24] = Toxicity in CB17-SCID mouse xenografted with human CAL-51 cells assessed as body weight loss at 30 to 50 mg/kg, iv administered once per week for 16 days; type: organism-based; conditions: in vivo, 384 h, dose 30-50 mg/kg, time 16 day
[25] = system: CAL-51; assay: Antitumor activity against human TNBC PDX-CAL-51 cells xenografted in CB17-SCID mouse assessed as tumor growth inhibition at 25 to 80 mg/kg, iv administered once per week for 3 weeks; type: functional, organism-based; conditions: dose 25-80 mg/kg
[26] = system: Leucine-rich repeat serine/threonine-protein kinase 2 (Homo sapiens), Q5S007 [G2019S]; assay: Inhibition of LRRK2 G2019S mutant (unknown origin) at 3 uM by ADAPTA assay relative to control
[27] = biological target: T2, Mitogen-activated protein kinase 8; assay: Inhibition of JNK1 (unknown origin) at 3 uM by Z-lyte assay relative to control
[28] = biological target: T3, Mitogen-activated protein kinase 9; assay: Inhibition of JNK2 (unknown origin) at 3 uM by Z-lyte assay relative to control
Target sequence in this assay (P45984 whole entry, looked up): as the sequence (P45984 whole entry) above

[29] = biological target: T4, MAP kinase-activated protein kinase 3; assay: Inhibition of MAPKAPK3 (unknown origin) at 3 uM by Z-lyte assay relative to control
Target sequence in this assay (Q16644 whole entry, looked up): as the sequence (Q16644 whole entry) above

[30] = biological target: T5, Proto-oncogene tyrosine-protein kinase Src; assay: Inhibition of SRC N1 (unknown origin) at 3 uM by Z-lyte assay relative to control
[31] = biological target: Voltage-gated inwardly rectifying potassium channel KCNH2 (Homo sapiens, UniProt Q12809); assay: Inhibition of hERG
Chain of Voltage-gated inwardly rectifying potassium channel KCNH2 (Q12809 whole entry): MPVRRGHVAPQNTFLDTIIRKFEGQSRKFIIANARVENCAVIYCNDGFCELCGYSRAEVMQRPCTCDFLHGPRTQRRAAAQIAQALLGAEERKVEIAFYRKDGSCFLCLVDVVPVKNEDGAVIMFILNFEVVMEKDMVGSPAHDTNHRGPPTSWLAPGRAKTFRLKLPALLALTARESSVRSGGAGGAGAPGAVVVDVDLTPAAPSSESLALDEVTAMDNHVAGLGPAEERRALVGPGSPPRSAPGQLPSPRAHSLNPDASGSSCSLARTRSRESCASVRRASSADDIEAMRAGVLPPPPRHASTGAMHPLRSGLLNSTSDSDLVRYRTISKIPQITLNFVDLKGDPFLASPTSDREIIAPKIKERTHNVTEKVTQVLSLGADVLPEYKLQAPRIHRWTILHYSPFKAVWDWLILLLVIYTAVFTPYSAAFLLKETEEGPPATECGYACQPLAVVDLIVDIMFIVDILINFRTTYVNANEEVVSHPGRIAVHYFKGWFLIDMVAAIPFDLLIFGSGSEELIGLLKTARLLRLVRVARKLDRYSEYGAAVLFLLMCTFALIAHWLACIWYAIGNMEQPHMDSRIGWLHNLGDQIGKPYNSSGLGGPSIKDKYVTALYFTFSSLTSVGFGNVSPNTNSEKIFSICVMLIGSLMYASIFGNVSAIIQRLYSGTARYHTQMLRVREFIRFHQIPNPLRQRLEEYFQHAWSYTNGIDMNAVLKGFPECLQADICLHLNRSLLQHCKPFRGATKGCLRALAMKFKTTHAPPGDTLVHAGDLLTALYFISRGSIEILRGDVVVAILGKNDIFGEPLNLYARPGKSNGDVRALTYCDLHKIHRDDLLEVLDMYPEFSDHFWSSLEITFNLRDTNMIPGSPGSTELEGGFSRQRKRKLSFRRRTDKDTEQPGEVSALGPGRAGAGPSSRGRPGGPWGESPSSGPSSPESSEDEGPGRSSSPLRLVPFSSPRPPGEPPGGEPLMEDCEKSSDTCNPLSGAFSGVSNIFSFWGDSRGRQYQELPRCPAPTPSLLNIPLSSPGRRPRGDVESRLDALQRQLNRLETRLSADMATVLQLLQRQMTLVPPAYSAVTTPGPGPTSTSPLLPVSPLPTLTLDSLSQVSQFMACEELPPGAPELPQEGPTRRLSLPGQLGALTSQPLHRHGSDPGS

[32] = biological target: Substance-P receptor (Homo sapiens) (UniProt P25103); assay: Inhibition of Neurokinin NK1 receptor (unknown origin) at 10 uM relative to control
Chain of Substance-P receptor (Homo sapiens) (P25103 whole entry): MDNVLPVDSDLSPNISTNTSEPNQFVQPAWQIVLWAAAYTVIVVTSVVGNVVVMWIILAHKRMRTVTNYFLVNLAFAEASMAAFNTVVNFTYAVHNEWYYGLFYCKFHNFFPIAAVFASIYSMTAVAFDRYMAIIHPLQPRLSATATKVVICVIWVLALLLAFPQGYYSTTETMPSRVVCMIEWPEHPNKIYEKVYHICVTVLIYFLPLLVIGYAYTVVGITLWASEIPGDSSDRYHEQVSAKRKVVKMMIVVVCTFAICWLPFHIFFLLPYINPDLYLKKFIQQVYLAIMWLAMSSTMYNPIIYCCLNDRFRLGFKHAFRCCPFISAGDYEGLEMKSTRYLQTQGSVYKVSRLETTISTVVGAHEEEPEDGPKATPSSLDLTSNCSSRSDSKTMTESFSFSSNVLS

[33] = biological target: Muscarinic acetylcholine receptor M1 (Homo sapiens) (UniProt P11229); assay: Inhibition of muscarinic M1 receptor (unknown origin) at 10 uM relative to control
[34] = biological target: Muscarinic acetylcholine receptor M3 (Homo sapiens) (UniProt P20309); assay: Inhibition of muscarinic M3 receptor (unknown origin) at 10 uM relative to control

T1 sequence (O96017 whole entry): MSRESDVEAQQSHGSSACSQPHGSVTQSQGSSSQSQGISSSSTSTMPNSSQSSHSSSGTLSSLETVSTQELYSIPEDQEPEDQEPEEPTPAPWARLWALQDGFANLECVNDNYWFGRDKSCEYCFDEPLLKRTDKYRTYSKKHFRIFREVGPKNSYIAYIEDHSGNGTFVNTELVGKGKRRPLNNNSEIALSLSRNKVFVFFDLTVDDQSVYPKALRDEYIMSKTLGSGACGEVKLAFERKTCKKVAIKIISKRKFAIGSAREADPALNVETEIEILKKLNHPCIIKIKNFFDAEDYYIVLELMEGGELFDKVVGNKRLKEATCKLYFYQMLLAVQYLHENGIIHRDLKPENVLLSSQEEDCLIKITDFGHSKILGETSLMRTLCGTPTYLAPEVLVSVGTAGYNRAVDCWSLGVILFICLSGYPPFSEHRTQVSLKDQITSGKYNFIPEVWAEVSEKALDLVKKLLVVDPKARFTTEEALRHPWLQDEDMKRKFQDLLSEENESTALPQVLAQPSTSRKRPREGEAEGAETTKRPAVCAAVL

CCc1cccc(CC)c1N1CCn2cc(-c3nc(Nc4ccc(N5CCC(C(=O)N6CC7(CN(C)C7)C6)CC5)cc4OC)nc4[nH]ccc34)cc2C1=O
inhibition [1]: > 80% | clearance [2]: 2.8 mL/min/kg | IC50 [3]: 545 nM | IC50 [4]: 192 nM | IC50 [5]: 602 nM | IC50 [6]: 1480 nM | IC50 [7]: 1300 nM | IC50 [8]: 35 nM | Ratio IC50 [9]: 182 | Ratio IC50 [10]: 114 | Ratio IC50 [11]: 76.3 | Ratio IC50 [12]: 64 | Ratio IC50 [13]: 201 | Ratio IC50 [14]: 493 | Ratio IC50 [15]: 315 | Ratio IC50 [16]: 11.7 | IC50 [17]: 74 nM | Vd [18]: 0.66 L/kg | Vd [19]: 0.53 L/kg | MRT [20]: 4.3 h | MRT [21]: 0.98 h | AUC [22]: 18.2 µM·h | AUC [23]: 5.29 µM·h | Activity [24]: Non-Toxic | Activity [25]: Active | inhibition [26]: > 80% | inhibition [27]: > 80% | inhibition [28]: > 80% | inhibition [29]: > 80% | inhibition [30]: > 80% | IC50 [31]: > 30000 nM | inhibition [32]: 80% | inhibition [33]: 80% | inhibition [34]: 80%
